# Results as given in patent US9169254B2, “Spiroimidazolone derivative” (Chugai Seiyaku Kabushiki Kaisha, priority 2009, dated 2015).
# Biological target: T1, human PTH1 receptor (Homo sapiens, UniProt Q03431)
# T1 sequence (Q03431 27-593): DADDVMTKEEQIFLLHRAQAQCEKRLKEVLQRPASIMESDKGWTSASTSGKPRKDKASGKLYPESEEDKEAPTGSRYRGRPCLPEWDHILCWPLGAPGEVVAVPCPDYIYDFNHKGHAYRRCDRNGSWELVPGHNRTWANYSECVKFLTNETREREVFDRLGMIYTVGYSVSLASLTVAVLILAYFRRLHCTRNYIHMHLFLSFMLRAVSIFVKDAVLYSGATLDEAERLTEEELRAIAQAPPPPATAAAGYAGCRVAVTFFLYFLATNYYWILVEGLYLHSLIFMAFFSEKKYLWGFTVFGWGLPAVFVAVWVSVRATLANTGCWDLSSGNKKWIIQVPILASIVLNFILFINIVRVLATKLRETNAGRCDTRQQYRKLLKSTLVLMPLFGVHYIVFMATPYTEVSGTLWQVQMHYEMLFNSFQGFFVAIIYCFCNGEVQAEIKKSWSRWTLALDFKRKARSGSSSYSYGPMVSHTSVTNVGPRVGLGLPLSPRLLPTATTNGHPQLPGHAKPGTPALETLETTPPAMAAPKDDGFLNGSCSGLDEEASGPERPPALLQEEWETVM
# Test: In vitro cAMP signal activity in HKRK-B7 cells (LLC-PK1 cells overexpressing the human PTH1 receptor)
# Assay type: cell-based
# Conditions: HKRK-B7 cells; compound at 1×10^−3 M; cAMP produced as percentage of that produced by hPTH(1-34) at 100 nM
row,Structure (SMILES),cAMP production activity (%)
1,"Cc1cc(OCCC(O)CO)ccc1/C=C/S(=O)(=O)N1CCC2(CC1)N=C(c1cccc(OC(F)(F)F)c1)NC2=O (stereo not shown) [Compound 531, 8-{(E)-2-[4-(3,4-dihydroxy-butoxy)-2-methyl-phenyl]-ethenesulfonyl}-2-(3-trifluoromethoxy-phenyl)-1,3,8-triaza-spiro[4.5]dec-1-en-4-one]",69%
2,"Cc1cc(N(CCO)C(=O)NCCO)cc(C)c1/C=C/S(=O)(=O)N1CCC2(CC1)N=C(c1cccc(OC(F)(F)F)c1)NC2=O [Compound 532, 1-(3,5-dimethyl-4-{(E)-2-[4-oxo-2-(3-trifluoromethoxy-phenyl)-1,3,8-triaza-spiro[4.5]dec-1-ene-8-sulfonyl]-vinyl}-phenyl)-1,3-bis-(2-hydroxy-ethyl)-urea]",80%
3,"Cc1cc(N(CCO)C(=O)N(C)CCO)cc(C)c1/C=C/S(=O)(=O)N1CCC2(CC1)N=C(c1cccc(OC(F)(F)F)c1)NC2=O [Compound 533, 1-(3,5-dimethyl-4-{(E)-2-[4-oxo-2-(3-trifluoromethoxy-phenyl)-1,3,8-triaza-spiro[4.5]dec-1-ene-8-sulfonyl]-vinyl}-phenyl)-1,3-bis-(2-hydroxy-ethyl)-3-methyl-urea]",69%
4,"Cc1cc(N(C2CCOCC2)S(C)(=O)=O)cc(C)c1/C=C/S(=O)(=O)N1CCC2(CC1)N=C(c1cccc(OC(F)(F)F)c1)NC2=O [Compound 534, N-(3,5-dimethyl-4-{(E)-2-[4-oxo-2-(3-trifluoromethoxy-phenyl)-1,3,8-triaza-spiro[4.5]dec-1-ene-8-sulfonyl]-vinyl}-phenyl)-N-(tetrahydro-pyran-4-yl)-methane sulfonamide]",39%
5,"Cc1cc(C(=O)N2CCC(O)CC2)cc(C)c1/C=C/S(=O)(=O)N1CCC2(CC1)N=C(c1ccc(F)c(C(F)(F)F)c1)NC2=O [Compound 535, 2-(4-fluoro-3-trifluoromethyl-phenyl)-8-{(E)-2-[4-(4-hydroxy-piperidine-1-carbonyl)-2,6-dimethyl-phenyl]-ethenesulfonyl}-1,3,8-triaza-spiro[4.5]dec-1-en-4-one]",83%
6,"CCCCCCCCCC1=NC2(CCN(S(=O)(=O)/C=C/c3ccc(N4C(=O)CNC4=O)cc3C)CC2)C(=O)N1 [Compound 536, 3-{3-Methyl-4-[(E)-2-(2-nonyl-4-oxo-1,3,8-triaza-spiro[4.5]dec-1-ene-8-sulfonyl)-vinyl]-phenyl}-imidazolidine-2,4-dione]",72%
7,"CCCCCCCCCC1=NC2(CCN(S(=O)(=O)/C=C/c3ccc(N4C(=O)CNC4=O)cc3C(F)(F)F)CC2)C(=O)N1 [Compound 537, 3-{4-[(E)-2-(2-nonyl-4-oxo-1,3,8-triaza-spiro[4.5]dec-1-ene-8-sulfonyl)-vinyl]-3-trifluoromethyl-phenyl}-imidazolidine-2,4-dione]",3.9%
8,"CCCCCCCCCC1=NC2(CCN(S(=O)(=O)/C=C/c3ccc(N4C(=O)COCC4=O)cc3C)CC2)C(=O)N1 [Compound 538, 4-{3-methyl-4-[(E)-2-(2-nonyl-4-oxo-1,3,8-triaza-spiro[4.5]dec-1-ene-8-sulfonyl)-vinyl]-phenyl}-morpholine-3,5-dione]",133%
9,"CCCCCCCCCC1=NC2(CCN(S(=O)(=O)/C=C/c3c(C)cc(N4C(=O)CNC4=O)cc3C)CC2)C(=O)N1 [Compound 539, 3-{3,5-dimethyl-4-[(E)-2-(2-nonyl-4-oxo-1,3,8-triaza-spiro[4.5]dec-1-ene-8-sulfonyl)-vinyl]-phenyl}-imidazolidine-2,4-dione]",80%
10,"O=C1NC(C2CCC(CCC(F)(F)F)CC2)=NC12CCN(S(=O)(=O)/C=C/c1cccc3c1ccn3C[C@@H](O)CO)CC2 (stereo partly drawn) [Compound 541, 8-{(E)-2-[1-((R)-2,3-dihydroxy-propyl)-1H-indol-4-yl]-ethenesulfonyl}-2-[4-(3,3,3-trifluoro-propyl)-cyclohexyl]-1,3,8-triaza-spiro[4.5]dec-1-en-4-one]",79%
11,"COCCN(C(C)=O)c1ccc(/C=C/S(=O)(=O)N2CCC3(CC2)N=C(C2CCC(CCC(F)(F)F)CC2)NC3=O)c(C)c1 (stereo not shown) [Compound 542, N-(2-methoxy-ethyl)-N-[3-methyl-4-((E)-2-{4-oxo-2-[4-(3,3,3-trifluoro-propyl)-cyclohexyl]-1,3,8-triaza-spiro[4.5]dec-1-ene-8-sulfonyl}-vinyl)-phenyl]-acetamide]",66%
12,"CC(=O)N(CCOCCO)c1ccc(/C=C/S(=O)(=O)N2CCC3(CC2)N=C(C2CCC(CCC(F)(F)F)CC2)NC3=O)c(C)c1 (stereo not shown) [Compound 544, N-[2-(2-hydroxy-ethoxy)-ethyl]-N-[3-methyl-4-((E)-2-{4-oxo-2-[4-(3,3,3-trifluoro-propyl)-cyclohexyl]-1,3,8-triaza-spiro[4.5]dec-1-ene-8-sulfonyl}-vinyl)-phenyl]-acetamide]",80%
13,"CC(=O)N(CCOCCF)c1ccc(/C=C/S(=O)(=O)N2CCC3(CC2)N=C(C2CCC(CCC(F)(F)F)CC2)NC3=O)c(C)c1 (stereo not shown) [Compound 545, N-[2-(2-fluoro-ethoxy)-ethyl]-N-[3-methyl-4-((E)-2-{4-oxo-2-[4-(3,3,3-trifluoro-propyl)-cyclohexyl]-1,3,8-triaza-spiro[4.5]dec-1-ene-8-sulfonyl}-vinyl)-phenyl]-acetamide]",86%
14,"Cc1cc(C(=O)N2CCN(CCF)CC2)cc(C)c1/C=C/S(=O)(=O)N1CCC2(CC1)N=C(C1CCC(CCC(F)(F)F)CC1)NC2=O (stereo not shown) [Compound 549, 8-((E)-2-{4-[4-(2-fluoro-ethyl)-piperazine-1-carbonyl]-2,6-dimethyl-phenyl}-ethenesulfonyl)-2-[4-(3,3,3-trifluoro-propyl)-cyclohexyl]-1,3,8-triaza-spiro[4.5]dec-1-en-4-one]",86%
15,"CC(=O)N(CCOCCF)c1cc(C)c(/C=C/S(=O)(=O)N2CCC3(CC2)N=C(C2CCC(CCC(F)(F)F)CC2)NC3=O)c(C)c1 (stereo not shown) [Compound 551, N-[3,5-dimethyl-4-((E)-2-{4-oxo-2-[4-(3,3,3-trifluoro-propyl)-cyclohexyl]-1,3,8-triaza-spiro[4.5]dec-1-ene-8-sulfonyl}-vinyl)-phenyl]-N-[2-(2-fluoro-ethoxy)-ethyl]-acetamide]",92%

# Next, values leading:
row,cAMP production activity (%),Structure (SMILES)
1,22%,"Cc1cc(N2C(=O)NC(C)(C)C2=O)ccc1/C=C/S(=O)(=O)N1CCC2(CC1)N=C(C1CCC(CCC(F)(F)F)CC1)NC2=O (stereo not shown) [Compound 540, 5,5-Dimethyl-3-[3-methyl-4-((E)-2-{4-oxo-2-[4-(3,3,3-trifluoro-propyl)-cyclohexyl]-1,3,8-triaza-spiro[4.5]dec-1-ene-8-sulfonyl}-vinyl)-phenyl]-imidazolidine-2,4-dione]"
2,76%,"COCCN(C(C)=O)c1cc(C)c(/C=C/S(=O)(=O)N2CCC3(CC2)N=C(C2CCC(CCC(F)(F)F)CC2)NC3=O)c(C)c1 (stereo not shown) [Compound 543, N-[3,5-dimethyl-4-((E)-2-{4-oxo-2-[4-(3,3,3-trifluoro-propyl)-cyclohexyl]-1,3,8-triaza-spiro[4.5]dec-1-ene-8-sulfonyl}-vinyl)-phenyl]-N-(2-methoxy-ethyl)-acetamide]"
3,75%,"CC(=O)N(C)c1cc(C)c(/C=C/S(=O)(=O)N2CCC3(CC2)N=C(C2CCC(CCC(F)(F)F)CC2)NC3=O)c(C)c1 (stereo not shown) [Compound 546, N-[3,5-dimethyl-4-((E)-2-{4-oxo-2-[4-(3,3,3-trifluoro-propyl)-cyclohexyl]-1,3,8-triaza-spiro[4.5]dec-1-ene-8-sulfonyl}-vinyl)-phenyl]-N-methyl-acetamide]"
4,52%,"Cc1cc(C(=O)O)cc(C)c1/C=C/S(=O)(=O)N1CCC2(CC1)N=C(C1CCC(CCC(F)(F)F)CC1)NC2=O (stereo not shown) [Compound 547, 3,5-dimethyl-4-((E)-2-{4-oxo-2-[4-(3,3,3-trifluoro-propyl)-cyclohexyl]-1,3,8-triaza-spiro[4.5]dec-1-ene-8-sulfonyl}-vinyl)-benzoic acid]"
5,88%,"Cc1cc(N2C(=O)CN(C)C2=O)cc(C)c1/C=C/S(=O)(=O)N1CCC2(CC1)N=C(C1CCC(CCC(F)(F)F)CC1)NC2=O (stereo not shown) [Compound 548, 3-[3,5-dimethyl-4-((E)-2-{4-oxo-2-[4-(3,3,3-trifluoro-propyl)-cyclohexyl]-1,3,8-triaza-spiro[4.5]dec-1-ene-8-sulfonyl}-vinyl)-phenyl]-1-methyl-imidazolidine-2,4-dione]"
6,124%,"Cc1cc(N2CCOCC2=O)cc(C)c1/C=C/S(=O)(=O)N1CCC2(CC1)N=C(C1CCC(CCC(F)(F)F)CC1)NC2=O (stereo not shown) [Compound 550, 8-{(E)-2-[2,6-dimethyl-4-(3-oxo-morpholin-4-yl)-phenyl]-ethenesulfonyl}-2-[4-(3,3,3-trifluoro-propyl)-cyclohexyl]-1,3,8-triaza-spiro[4.5]dec-1-en-4-one]"
7,64%,"CC(=O)NNC(=O)c1cc(C)c(/C=C/S(=O)(=O)N2CCC3(CC2)N=C(C2CCC(CCC(F)(F)F)CC2)NC3=O)c(C)c1 (stereo not shown) [Compound 552, 3,5-dimethyl-4-((E)-2-{4-oxo-2-[4-(3,3,3-trifluoro-propyl)-cyclohexyl]-1,3,8-triaza-spiro[4.5]dec-1-ene-8-sulfonyl}-vinyl)-benzoic acid N′-acetyl-hydrazide]"
